# Laboratory results: US8158791B2, “Aza-substituted spiro derivatives” (MSD K.K., priority 2005, dated 2012)
# Target: T1, human histamine-H3 receptor (Homo sapiens, UniProt Q9Y5N1)
# T1 construct: expressed in transfected cells; host or cells: HEK293 and CHO-K1 (membrane preparation)
# Experiment: Histamine analogue-binding inhibition test
# Details: 50% inhibitory concentration to specific [3H]N-α-methylhistamine binding; membrane specimen of histamine-H3 receptor expression cells; 25° C., 2 hours, pH 7.4
# Description: A cDNA sequence coding for a human histamine-H3 receptor [see WO00/39164) was cloned with expression vectors pCR2.1, pEF1× (by Invitrogen) and pCI-neo (by Promega). The resulting expression vector was transfected into host cells, HEK293 and CHO-K1 (American Type Culture Collection), according to a cationic lipid process [see Proceedings of the National Academy of Sciences of the United States of America, Vol., 84, p. 7413 (1987)] to obtain histamine-H3 receptor expression cells.
# A membrane specimen prepared from the cells having expressed a histamine-H3 receptor was incubated in an assay buffer (50 mM Tris buffer, pH 7.4) along with a test compound and 20,000 cpm [3H]N-α-methylhistamine (by NEN) therein, at 25° C. for 2 hours, and then filtered through a glass filter GF/C. After washed with 50 mM Tris buffer (pH 7.4), the radioactivity on the glass filter was determined. The non-specific binding was determined in the presence of 10 μM thioperamide (by SIGAM), and the 50% inhibitory concentration (IC50) of the test compound to the specific N-alpha-methylhistamine binding was calculated [see Molecular Pharmacology, Vol. 55, p. 1101 (1999)].
# T1 sequence (Q9Y5N1 whole entry): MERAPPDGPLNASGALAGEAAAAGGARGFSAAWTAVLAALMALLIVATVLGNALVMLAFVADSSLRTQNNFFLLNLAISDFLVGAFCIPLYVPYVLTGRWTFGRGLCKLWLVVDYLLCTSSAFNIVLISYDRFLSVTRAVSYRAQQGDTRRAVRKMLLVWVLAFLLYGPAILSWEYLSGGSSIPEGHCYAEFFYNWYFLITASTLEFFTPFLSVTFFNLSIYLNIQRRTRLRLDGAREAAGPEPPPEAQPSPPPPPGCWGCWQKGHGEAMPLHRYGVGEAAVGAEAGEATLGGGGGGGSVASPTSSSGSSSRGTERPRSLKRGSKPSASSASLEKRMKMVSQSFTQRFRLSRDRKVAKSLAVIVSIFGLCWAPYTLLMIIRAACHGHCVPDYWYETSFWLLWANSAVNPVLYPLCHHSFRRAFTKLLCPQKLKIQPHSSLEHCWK
row,Structure (SMILES),IC50
1,"CN(CCN1CCCC1)C(=O)[C@H]1CC[C@@]2(CC1)OC(=O)c1ncccc12 [Example 3, Trans-3′-oxo-N-methyl-N-(2-pyrrolidin-1-ylethyl)-spiro[cyclohexane-1,1′-(3′H)-4′-azaisobenzofuran]-4-carboxamide]",0.72 nM
2,"COc1ccc2c(n1)C(=O)O[C@]21CC[C@H](C(=O)N(C)CCN2CCCCC2)CC1 [Example 11, Trans-5′-methoxy-3′-oxo-N-methyl-N-(2-piperidin-1-ylethyl)-spiro[cyclohexane-1,1′-(3′H)-4′-azaisobenzofuran]-4-carboxamide]",0.92 nM
3,"COc1ccc2c(n1)C(=O)O[C@]21CC[C@H](C(=O)N(C)CCN2CCCC2)CC1 [Example 13, Trans-5′-methoxy-3′-oxo-N-methyl-N-(2-pyrrolidin-1-ylethyl)-spiro[cyclohexane-1,1′-(3′H)-4′-azaisobenzofuran]-4-carboxamide]",0.92 nM
4,"CN(CCN1CCCC1)C(=O)[C@H]1CC[C@@]2(CC1)OC(=O)c1nc(N3CCCCC3)ccc12 [Example 17, Trans-5′-(piperidin-1-yl)-3′-oxo-N-methyl-N-(2-pyrrolidin-1-ylethyl)-spiro[cyclohexane-1,1′-(3′H)-4′-azaisobenzofuran]-4-carboxamide]",1.9 nM
5,"CN(CCN1CCCC1)C(=O)[C@H]1CC[C@@]2(CC1)OC(=O)c1nc(-c3ccccc3)ccc12 [Example 21, Trans-5′-phenyl-3′-oxo-N-methyl-N-(2-pyrrolidin-1-ylethyl)-spiro[cyclohexane-1,1′-(3′H)-4′-azaisobenzofuran]-4-carboxamide]",0.42 nM
6,"COc1nccc2c1C(=O)O[C@]21CC[C@H](C(=O)N(C)CCN2CCCCC2)CC1 [Example 34, Trans-4′-methoxy-3′-oxo-N-methyl-N-(2-piperidin-1-ylethyl)-spiro[cyclohexane-1,1′-(3′H)-5′-azaisobenzofuran]-4-carboxamide]",0.32 nM
7,"Cc1nccc2c1C(=O)O[C@]21CC[C@H](C(=O)N(C)CCN2CCCCC2)CC1 [Example 41, Trans-4′-methyl-3′-oxo-N-methyl-N-(2-piperidin-1-ylethyl)-spiro[cyclohexane-1,1′-(3′H)-5′-azaisobenzofuran]-4-carboxamide]",0.51 nM
8,"CN(CCN1CCCCC1)C(=O)[C@H]1CC[C@@]2(CC1)OC(=O)c1c(-c3cnn(C)c3)nccc12 [Example 45, Trans-4′-(1-methyl-1H-pyrazol-4-yl)-3′-oxo-N-methyl-N-(2-piperidin-1-ylethyl)-spiro[cyclohexane-1,1′-(3′H)-5′-azaisobenzofuran]-4-carboxamide]",0.14 nM
9,"CN(CCN1CCCCC1)C(=O)[C@H]1CC[C@@]2(CC1)OC(=O)c1nc(-c3cnccn3)ccc12 [Example 54, Trans-5′-pyrazinyl-3′-oxo-N-methyl-N-(2-piperidin-1-ylethyl)-spiro[cyclohexane-1,1′-(3′H)-4′-azisobenzofuran]-4-carboxamide]",0.07 nM
